Laboratory results from patent publication US20260250519A1, “Copper Containing Compounds and Compositions for Antimicrobial Paint and Coating” (ARXADA, LLC, priority 2022, published 2026).
“Also recorded” adds a separate entry of the source.

Experiments:
[1] = Compatibility of copper compounds in flat wall paint, visual assessment of dry film for grits; type: physicochemical; details: 600 ppm Cu in acrylic flat wall paint; dry film inspected for grits
Experimental: The compatibilities of copper compounds in paint were evaluated via visual assessment of dry film appearance of a flat wall paint (50% PVC, 35% Solid Vol, 45 g/L VOC, Table 1).

[2] = tested on: Aspergillus niger (ATCC 6275), Aureobasidium pullulans (ATCC 9348) and Penicillium citrinum (ATCC 9849); assay: ASTM resistance to growth of mold on interior coatings in an environmental chamber; type: cell-based; details: for Avg Rating: 4 weeks in chamber; for antifungal test pass/fail: Pass = rating 8-10 (Table 9)
Experimental: Two coatings were brushed onto both faces and all edges of wood panel (allowing 1 day between coats). The resulting coated panels were dried at 23±2° C. and 50±5% relative humidity for 4 days. […] In the environmental chamber, the dried coated panels were hung vertically with the bottom approximately 3 inch above the surface of the inoculated soil and with sufficient spacing to allow free circulation of air and to prevent contact between panels or with wall surfaces. […] The degrees of fungal contamination were assessed using the rating scale in Table 9.

[3] = tested on: Escherichia coli (ATCC 8739); assay: Modified JIS Z2801 antibacterial efficacy in dry paint film (μBCC, ZnO); type: cell-based; details: ZnO 0 ppm in flat wall paint; for 2 hr Contact Time % ↓ / 2 hr Contact Time Log10 ↓: relative to blank paint
Experimental: (§1) In brief, μBCC dispersion and optional ZnO dispersion (25 wt %) were added into a flat wall paint (50% PVC, 35% Solid Vol, 45 g/L VOC, Table 1) for target Cu and ZnO level, respectively. The paints were brushed onto the sterilized plastic filter paper. Each side of the filter paper was painted twice and the resulting coated paper was dried at ambient condition for 3 days. The dried coatings were then leached against 10 L water for 24 hours (4 water changes for the first 8 hour). Each of three (3) bacterial inoculum (0.4 mL): Escherichia coli (ATCC 8739), Staphylococcus aureus (ATCC 6538), Pseudomonas aeruginosa (ATCC 15442) was used to inoculate the dry film (40 mm×40 mm) of test paint to achieve 1.0 to 4.0×10^5 cfm/mL of inoculum concentration per each bacteria on dry surface of each test paint. The test paints were incubated at 35±1° C. and 90% relative humidity (RH) for 2 hour. The degrees of bacterial contamination of all samples were determined relative to blank paint via viable cell count of bacteria by agar plate culture method.

[4] = tested on: Staphylococcus aureus (ATCC 6538); assay: as above; type: cell-based; details: ZnO 0 ppm in flat wall paint; for 2 hr Contact Time % ↓ / 2 hr Contact Time Log10 ↓: relative to blank paint
Experimental: as §1

[5] = tested on: Pseudomonas aeruginosa (ATCC 15442); assay: as above; type: cell-based; details: ZnO 0 ppm in flat wall paint; for 2 hr Contact Time % ↓ / 2 hr Contact Time Log10 ↓: relative to blank paint
Experimental: as §1

[6] = tested on: Staphylococcus aureus (ATCC 6538); assay: Interim EPA method for antimicrobial surface coatings, flat wall paint; type: cell-based; details: Cu 1670 ppm in flat wall paint
Experimental: (§2) The antibacterial efficacies of copper-containing composition in dry paint film were evaluated using an interim EPA method (Interim Method for Evaluating the Efficacy of Antimicrobial Surface Coatings: Oct. 2, 2020). In brief, μBCC dispersion was added into a flat wall paint (38% Solid Vol, <50 g/L VOC) for target Cu level. The paints were drawn-down onto the sterilized steel substrate (1 inch by 1 inch of AISI type 304 stainless steel). The resulting coated substrate was dried at ambient condition for at least 24 hours. Each of two (2) bacterial inoculum ([…]): Staphylococcus aureus (ATCC 6538) and Pseudomonas aeruginosa (ATCC 15442) was used to inoculate the dry film of test paint to achieve 10^4 to 10^5 cfm/carrier of each bacteria on dry surface of each test paint. The test paints were incubated at 22° C. and 30-40% RH for 2 hours. The degrees of bacterial contamination were determined via viable cell count for antibacterial efficacy relative to the uncoated substrate.

[7] = tested on: Pseudomonas aeruginosa (ATCC 15442); assay: as above; type: cell-based; details: 1670 ppm in flat wall paint
Experimental: as §2

[8] = no Cu additive, Quat level 2000 ppm

O=S(=O)([O-])[O-].[Cu+2] [CuSO4, copper sulfate, reference compound]
Compatibilities of Copper Compounds in Paint [1]: Incompatible (many grits)

CCCCCCCCCCCCN(C)C [Lauryl Dimethyl Amine, reference compound]
Avg Rating [2, 8]: 2.7

O=C([O-])[O-].[Cu+2].[Cu+2].[OH-].[OH-] [μBCC, Micronized basic copper carbonate]
antifungal test pass/fail ([2]; 167 ppm Cu): fails | antifungal test pass/fail ([2]; 333 ppm Cu): passes | Avg Rating ([2]; Cu level 167 ppm, no Quat): 7.7 | Avg Rating ([2]; Cu level 333 ppm, no Quat): 9.3 | 2 hr Contact Time Avg ([3]; Cu 165 ppm): <5.7E+01 | 2 hr Contact Time Log10 ([3]; Cu 165 ppm): <1.75 | 2 hr Contact Time % ↓ ([3]; Cu 165 ppm): ≥99.920% | 2 hr Contact Time Log10 ↓ ([3]; Cu 165 ppm): ≥3.10 | 2 hr Contact Time Avg ([3]; Cu 330 ppm): <1.0E+01 | 2 hr Contact Time Log10 ([3]; Cu 330 ppm): <1.00 | 2 hr Contact Time % ↓ ([3]; Cu 330 ppm): ≥99.986% | 2 hr Contact Time Log10 ↓ ([3]; Cu 330 ppm): ≥3.85 | 2 hr Contact Time Avg ([3]; Cu 824 ppm): <4.0E+01 | 2 hr Contact Time Log10 ([3]; Cu 824 ppm): <1.60 | 2 hr Contact Time % ↓ ([3]; Cu 824 ppm): ≥99.944% | 2 hr Contact Time Log10 ↓ ([3]; Cu 824 ppm): ≥3.25 | 2 hr Contact Time Avg ([3]; Cu 1650 ppm): <1.0E+01 | 2 hr Contact Time Log10 ([3]; Cu 1650 ppm): <1.00 | 2 hr Contact Time % ↓ ([3]; Cu 1650 ppm): ≥99.986% | 2 hr Contact Time Log10 ↓ ([3]; Cu 1650 ppm): ≥3.85 | 2 hr Contact Time Avg ([4]; Cu 165 ppm): 6.3E+01 | 2 hr Contact Time Log10 ([4]; Cu 165 ppm): 1.80 | 2 hr Contact Time % ↓ ([4]; Cu 165 ppm): 99.936% | 2 hr Contact Time Log10 ↓ ([4]; Cu 165 ppm): 3.20 | 2 hr Contact Time Avg ([4]; Cu 330 ppm): <2.0E+01 | 2 hr Contact Time Log10 ([4]; Cu 330 ppm): <1.30 | 2 hr Contact Time % ↓ ([4]; Cu 330 ppm): ≥99.980% | 2 hr Contact Time Log10 ↓ ([4]; Cu 330 ppm): ≥3.70 | 2 hr Contact Time Avg ([4]; Cu 824 ppm): <4.0E+01 | 2 hr Contact Time Log10 ([4]; Cu 824 ppm): <1.60 | 2 hr Contact Time % ↓ ([4]; Cu 824 ppm): ≥99.960% | 2 hr Contact Time Log10 ↓ ([4]; Cu 824 ppm): ≥3.40 | 2 hr Contact Time Avg ([4]; Cu 1650 ppm): <1.0E+01 | 2 hr Contact Time Log10 ([4]; Cu 1650 ppm): <1.00 | 2 hr Contact Time % ↓ ([4]; Cu 1650 ppm): ≥99.990% | 2 hr Contact Time Log10 ↓ ([4]; Cu 1650 ppm): ≥4.00 | 2 hr Contact Time Avg ([5]; Cu 165 ppm): 1.2E+03 | 2 hr Contact Time Log10 ([5]; Cu 165 ppm): 3.08 | 2 hr Contact Time % ↓ ([5]; Cu 165 ppm): 93.632% | 2 hr Contact Time Log10 ↓ ([5]; Cu 165 ppm): 1.20 | 2 hr Contact Time Avg ([5]; Cu 330 ppm): 1.3E+03 | 2 hr Contact Time Log10 ([5]; Cu 330 ppm): 3.13 | 2 hr Contact Time % ↓ ([5]; Cu 330 ppm): 92.912% | 2 hr Contact Time Log10 ↓ ([5]; Cu 330 ppm): 1.15 | 2 hr Contact Time Avg ([5]; Cu 824 ppm): <4.7E+01 | 2 hr Contact Time Log10 ([5]; Cu 824 ppm): <1.67 | 2 hr Contact Time % ↓ ([5]; Cu 824 ppm): ≥99.754% | 2 hr Contact Time Log10 ↓ ([5]; Cu 824 ppm): ≥2.61 | 2 hr Contact Time Avg ([5]; Cu 1650 ppm): 2.7E+01 | 2 hr Contact Time Log10 ([5]; Cu 1650 ppm): 1.43 | 2 hr Contact Time % ↓ ([5]; Cu 1650 ppm): 99.860% | 2 hr Contact Time Log10 ↓ ([5]; Cu 1650 ppm): 2.85 | Compatibilities of Copper Compounds in Paint [1]: compatible; also recorded: Compatible (no grits) | 2 hr Contact Time Avg [6]: 6.6E+01 | 2 hr Contact Time Log10 [6]: 1.82 | 2 hr Contact Time % ↓ ([6]; relative to uncoated substrate): 99.9287% | 2 hr Contact Time Log10 ↓ ([6]; relative to uncoated substrate): 3.15 | 2 hr Contact Time Avg [7]: 1.0E+00 | 2 hr Contact Time Log10 [7]: 0.00 | 2 hr Contact Time % ↓ ([7]; relative to uncoated substrate): 99.9964% | 2 hr Contact Time Log10 ↓ ([7]; relative to uncoated substrate): 4.45

N,N-Didecyl-N,N-dimethylammonium carbonate/bicarbonate [reference compound]
Avg Rating [2, 8]: 3.3
